Patent US5847047A, “Antimicrobial composition of a polymer and a peptide forming amphiphilic helices of the magainin-type” (priority 1995, dated 1998)
Where a SMILES comes first, the peptide text is derived from it. Where no end group is shown, it is not given here.

How the values were obtained:
S. aureus = assay: Antimicrobial activity of soluble oligopeptides, microtiter growth inhibition (MIC); type: cell-based; conditions: soluble peptide, LB broth, 37° C.
Experimental: (§1) The term "MIC" refers to minimal inhibitory concentration and will be defined as the lowest concentration of either soluble peptide or peptide immobilized on a polymer that results in total kill of bacteria.
(§2) Typically, assays for antimicrobial activity of soluble oligopeptide compositions were carried out in microtiter wells. Each well was charged with 150 μl of LB broth containing cells at a final concentration of between 1×10^6 to 1×10^7 cells/ml and oligopeptide at final concentrations of 1×10^-3 to 1×10^-6 M. It is preferred that the oligopeptides be dissolved in water prior to addition to the assay medium and that cells be inoculated from mid-log phase cultures. […] Cultures showing cell growth inhibition were incubated for an additional 15 hr. at which time a final absorbance reading was taken. FIGS. 4a-d illustrate the cell growth inhibition of E. coli cultures incubated in the presence of various oligopeptides.
(§3) All manipulations with microorganisms involved the application of standard sterile techniques employed in microbiology. All cells were grown at 37° C. Cell concentration was measured by optical density measurements at 600 nm in a Perkin Elmer Model 552 UV/VIS spectrophotometer. The microorganisms used were strains of E. coli. and S. aureus. On the day prior to the assay, an overnight culture was prepared. On the following morning, the stationary phase cells were subcultured and allowed to grow to mid-log phase.
(§4) Each well was charged with LB Broth (150 mcL). The oligopeptide samples were dissolved in water and were added to achieve the appropriate final oligopeptide concentrations (ranging from 1×10^-3 to 1×10^-6 M) Finally, cells suspended in LB medium were added to a final concentration of between 1×10^6 to 1×10^7 cells/mL. The microtiter plate was covered and allowed to gently rotate in an orbital shaker. […] Control samples used for all experiments were: (a) LB broth only=uninoculated control; (b) LB broth only+cells=inoculated control.

E. coli [1] = assay: as above; type: cell-based; conditions: soluble peptide, LB broth, 37° C.
Experimental: as §1, §2, §3, §4
In FIGS. 4a-d cell growth inhibition is plotted as molar concentration of antimicrobial peptide as a function of the number of cells killed/ml. FIG. 4a-d illustrates the activity of the core oligopeptide, the N-addition analogue of formula II, the N-addition analogue of formula III, and the N-addition analogue of formula IV, respectively. All cultures were actively growing in log-phase and at a cell concentration of 2.0×10^7 cells/ml.

E. coli [2] = assay: Shake flask method for peptides covalently bound to polyamide resin (CFU count); type: cell-based; conditions: for % Reduction E. coli: immobilized peptide on EDA-PepsynK, determined as described in Example 9; for MIC E. coli: concentration of oligopeptide immobilized on PepsynK resin via EDA linker, shake flask, phosphate buffer pH 7.2, 37° C.
Experimental: (§5) Occasionally, a shake flask method was employed for insoluble articles. In the shake flask method, 75 mL of 0.6 mM phosphate buffer, pH 7.2 and 0.100 mL of the stock cell culture and the oligopeptide sample were added to a 250 mL polystyrene tissue culture flask. The flasks were incubated in a shaking water bath at 37° C. At specified times (1 hour and 24 hours), an aliquot (0.100 mL) was removed from the shake flask and serial dilutions ranging from 10 to 1000-fold were made to allow the enumeration of cells on agar plates. Each agar plate was inoculated with 0.200 mL of the diluted cell suspension, and the suspension was uniformly spread on the plate. Colony-forming units CFU on the agar plates were counted after 24 hours in an incubator (37° C.). Cells were identified by visual observation and use of a colony counter. Total CFU/mL was determined by correcting the cell count for the dilution factor.
Samples of peptides corresponding to the amino acid sequences SEQ ID NO:8, SEQ ID NO:13, SEQ ID NO:14, SEQ ID NO:15 and SEQ ID NO:1, were covalently linked to the polyamide resin PepSyn K as described in Example 10 and were tested for antimicrobial activity. Five compositions (PEPSYNK-LKP, PEPSYNK-LKPGK, PEPSYNK-LKPG2 K, PEPSYNK-LKPG3 K, and PEPSYNK-KGLKP) were tested over a range of 0 to 5 mg/ml of oligopeptide. Since the covalently linked oligopeptide/polymer compositions were insoluble, the protocol for testing antimicrobial activity was modified from that for the soluble peptide compositions of Example 2. Here, a shake flask method was employed.
as §5, with “In” for “Occasionally, a shake flask method was employed for insoluble articles. In”, “oligopeptide samples, ranging from 0 to 5 mg/ml of oligopeptide” for “oligopeptide sample”, “dilutions were made” for “dilutions”, “1000-fold” for “1000-fold were made”, “enumeration or” for “enumeration of”, “factor. In this manner the minimal inhibitory concentration (MIC) of oligopeptide for covalently linked compositions corresponding to PEPSYNK-LKP, PEPSYNK-LKPGK, PEPSYNK-LKPG2 K, PEPSYNK-LKPG3 K, and PEPSYNK-KGLKP were determined.” for “factor.”
The bactericidal activity for each immobilized peptide was determined as described in Example 9. The structures and the bactericidal activities of the immobilized peptides are shown in Table V. The relative activities against E. coli are consistent with what is known about the soluble peptides. […] The reverse magainin is a much poorer bactericide than its normal sequence.

Experimental for human erythrocytes: A 5.0% stock cell solution of human erythrocytes in phosphate buffered saline (PBS) was prepared by suspending 2.0 mL packed human erythrocytes in 38 mL of phosphate buffered saline (10 mM sodium phosphate, 120 mM sodium chloride, 2.7 mM potassium chloride, pH 7.5). Samples of the four compositions recited above were added to microfuge tubes containing 0.5 mL of cell solution and 0.5 mL of PBS. Upon addition of sample, the vials were capped, gently homogenized, then allowed to gently shake in an incubator at 37° C. for 30 minutes. The samples were centrifuged to sediment the cells. The supernatants were transferred to cuvettes and the absorbances at 414 nm were read in a Perkin Elmer 552 spectrophotometer. The 0 and 100% hemolysis controls were PBS and PBS +1.0% Triton X-100, respectively.

`CC(C)C[C@H](NC(=O)[C@H](CCCCN)NC(=O)[C@H](CC(C)C)NC(=O)[C@H](CC(C)C)NC(=O)[C@H](CCCCN)NC(=O)[C@H](CCCCN)NC(=O)[C@H](CC(C)C)NC(=O)[C@H](CC(C)C)NC(=O)[C@H](CCCCN)NC(=O)[C@H](CC(C)C)NC(=O)[C@H](CC(C)C)NC(=O)[C@H](CCCCN)NC(=O)[C@H](CCCCN)NC(=O)[C@H](CC(C)C)NC(=O)CNC(=O)[C@@H](N)CCCCN)C(=O)O` [Formula II, KGLKKLLKLLKKLLKL] (H-KGLKKLLKLLKKLLKL-OH) was tested, and the “Minimal Inhibitory Concentration S. aureus” value (S. aureus) was 15.6 µg/mL and the “Minimal Inhibitory Concentration E. coli” value (E. coli [1]) was 7.8 µg/mL.
In the case of `CC(C)C[C@H](NC(=O)[C@H](CCCCN)NC(=O)[C@H](CC(C)C)NC(=O)[C@H](CC(C)C)NC(=O)[C@H](CCCCN)NC(=O)[C@H](CCCCN)NC(=O)[C@H](CC(C)C)NC(=O)[C@H](CC(C)C)NC(=O)[C@H](CCCCN)NC(=O)[C@H](CC(C)C)NC(=O)[C@H](CC(C)C)NC(=O)[C@H](CCCCN)NC(=O)[C@H](CCCCN)NC(=O)[C@H](CC(C)C)NC(=O)CNC(=O)CNC(=O)[C@@H](N)CCCCN)C(=O)O` [Formula III, KGGLKKLLKLLKKLLKL] (H-KGGLKKLLKLLKKLLKL-OH), the “Minimal Inhibitory Concentration S. aureus” value (S. aureus) is reported as 62.5 µg/mL and the “Minimal Inhibitory Concentration E. coli” value (E. coli [1]) is reported as 7.8 µg/mL.
`CC(C)C[C@H](NC(=O)[C@H](CCCCN)NC(=O)[C@H](CC(C)C)NC(=O)[C@H](CC(C)C)NC(=O)[C@H](CCCCN)NC(=O)[C@H](CCCCN)NC(=O)[C@H](CC(C)C)NC(=O)[C@H](CC(C)C)NC(=O)[C@H](CCCCN)NC(=O)[C@H](CC(C)C)NC(=O)[C@H](CC(C)C)NC(=O)[C@H](CCCCN)NC(=O)[C@H](CCCCN)NC(=O)[C@H](CC(C)C)NC(=O)CNC(=O)CNC(=O)CNC(=O)[C@@H](N)CCCCN)C(=O)O` [Formula IV, KGGGLKKLLKLLKKLLKL] (H-KGGGLKKLLKLLKKLLKL-OH) was tested, and the “Minimal Inhibitory Concentration S. aureus” value (S. aureus) was 15.6 µg/mL and the “Minimal Inhibitory Concentration E. coli” value (E. coli [1]) was 7.8 µg/mL.
For `CC(C)C[C@H](NC(=O)[C@H](CCCCN)NC(=O)[C@H](CC(C)C)NC(=O)[C@H](CC(C)C)NC(=O)[C@H](CCCCN)NC(=O)[C@H](CCCCN)NC(=O)[C@H](CC(C)C)NC(=O)[C@H](CC(C)C)NC(=O)[C@H](CCCCN)NC(=O)[C@H](CC(C)C)NC(=O)[C@H](CC(C)C)NC(=O)[C@H](CCCCN)NC(=O)[C@H](CCCCN)NC(=O)[C@@H](N)CC(C)C)C(=O)O` [Formula I] (H-LKKLLKLLKKLLKL-OH), the “Minimal Inhibitory Concentration S. aureus” value (S. aureus) was 31.2 µg/mL and the “Minimal Inhibitory Concentration E. coli” value (E. coli [1]) was 15.6 µg/mL.
In the case of “GIGKFLHSAKKFGKAFVGEIMNS (GIGKFLHSAKKFGKAFVGEIMNS; immobilized on EDA-PepsynK resin) [EDA-PepsynK reverse magainin2, reverse magainin 2 peptide immobilized on EDA-modified PepsynK resin]”, the “% Reduction E. coli” value (E. coli [2]) is reported as 95.14%.
With “PepsynK-KGLKP: peptide SEQ ID NO:1 covalently linked to polyamide resin PepSyn K via non-cleavable EDA linker (KGLKKLLKLLKKLLKL; also: covalently linked to PepSyn K resin via EDA linker)” the “% Hemolysis at >6 mg/mL” value (human erythrocytes) was greater than 0.7% and the “MIC E. coli” value (E. coli [2]) was 888 µg/mL.
“PepsynK-LKPG2K: peptide SEQ ID NO:14 covalently linked to polyamide resin PepSyn K via non-cleavable EDA linker (LKLLKKLLKLLKKLGGK; also: covalently linked to PepSyn K resin via EDA linker)” was tested, and the “% Hemolysis at >6 mg/mL” value (human erythrocytes) was 1.2% and the “MIC E. coli” value (E. coli [2]) was 1208 µg/mL.
In the case of “PepsynK-LKPG3K: peptide SEQ ID NO:15 covalently linked to polyamide resin PepSyn K via non-cleavable EDA linker (LKLLKKLLKLLKKLGGGK; also: covalently linked to PepSyn K resin via EDA linker)”, the “% Hemolysis at >6 mg/mL” value (human erythrocytes) is reported as 12.7% and the “MIC E. coli” value (E. coli [2]) is reported as 938 µg/mL.
With “PepsynK-LKPGK: peptide SEQ ID NO:13 covalently linked to polyamide resin PepSyn K via non-cleavable EDA linker (LKLLKKLLKLLKKLGK; also: covalently linked to PepSyn K resin via EDA linker)” the “% Hemolysis at >6 mg/mL” value (human erythrocytes) was 0.7% and the “MIC E. coli” value (E. coli [2]) was 2213 µg/mL.
“Pepsynk-LKP: peptide SEQ ID NO:8 covalently linked to polyamide resin PepSyn K via non-cleavable EDA linker (LKKLLKLLKKLLKL; also: covalently linked to PepSyn K resin via EDA linker)” was tested, and the “% Hemolysis at >6 mg/mL” value (human erythrocytes) was 0.9% and the “MIC E. coli” value (E. coli [2]) was 807 µg/mL.
“SNMIEGVFAKGFKKASHLFKGIG (SNMIEGVFAKGFKKASHLFKGIG; immobilized on EDA-PepsynK resin) [EDA-PepsynK magainin2, magainin 2 immobilized on EDA-modified PepsynK resin]” was tested, and the “% Reduction E. coli” value (E. coli [2]) was 100%.
“V-F-A-K-G-F-K-K-A-S-H-L-F-K-G-I-G (VFAKGFKKASHLFKGIG; immobilized on EDA-PepsynK resin) [EDA-PepsynK magainin 17-mer deletion, 17-mer deletion peptide of magainin 2 immobilized on EDA-modified PepsynK resin]” was tested, and the “% Reduction E. coli” value (E. coli [2]) was 99.3%.
